Measurements reported in US20260248820A1, “USES OF HYDROGENATED CANNABIDIOL (H4CBD) AND ADVANCED METABOLIC SYNDROME” (The Regents of the University of California, priority 2022, published 2026).
Entries after “also recorded” stand apart in the source; their conditions may differ.

Experiments:
Assay type in all cases: in vivo
[1] = test system: Otsuka Long-Evans Tokushima Fatty (OLETF) rat; experiment: Morphometrical measurements (body mass, abdominal fat, food and water intake, activity) in advanced MetS rats
Excerpt: Animals—The Otsuka Long-Evans Tokushima Fatty (OLETF) rat is a monogenic model of diet-induced obesity accelerated by a mutation in the CCK receptor. […] At >40 weeks of age, OLETF rats suffer from severe metabolic dysfunction and therefore serve as a model of aged, severe MetS.
(§1) Male lean Long Evan's Tokushima Otsuka (LETO) rats and obese Otsuka Long Evans Tokushima Fatty (OLETF) rats (Japan SLC Inc., Hamamatsu, Japan), both 14 weeks of age were assigned to the following groups (n=8/group): (1) vehicle-dosed LETO (LETO), (2) vehicle-dosed OLETF (OLETF), and (3) H4CBD-treated (200 mg/kg/day×4 weeks) OLETF (H4CBD). Rats were maintained in a specific pathogen-free, climate-controlled facility on a 12-hour light: dark cycle (07:00-19:00 and 19:00-07:00, respectively). All animals had free access to water and were fed rat chow (Teklad Global; fat 9.0%; carbohydrate 44.9%; protein 19.0%) ad libitum. Treatment intervention was initiated at 41 weeks of age. Phenotypic data (i.e. body mass, food intake) was collected daily for all animals.
Purified H4CBD (>99%) was suspended in food grade sesame oil and administered by oral gavage at a dose of 200 mg/kg.
(§2) Tissue Collection—After the 4-week study and 3 days following the OGTT, animals were fasted overnight and tissues were collected the following morning.
as §1, with “Animals—Male” for “Male”, “facility at the University of California, Merced” for “facility”, “age.” for “age. Phenotypic data (i.e. body mass, food intake) was collected daily for all animals.”
Body Mass (BM), Water, and Food Intake—BM was measured daily to calculate the appropriate drug and vehicle dose. Water, urine and food were measured once every 24 hours throughout the study.
(§3) Telemeter Implantation—At 16 weeks, OLETF rats (n=5) were implanted with DSI telemeters (HD-S10) in the abdominal cavity to measure systolic blood pressure. […] Activity was measured every hour for 15 minutes for the duration of the study. Data were analyzed using A.R.T. software (DSI, St. Paul, MN).
Drug Preparation and Administration—Purified H4CBD (>99%) was suspended in sesame oil and administered by oral gavage at a dose of 200 mg/kg.
(§4) Tissue Collection—After the 4-week study period, animals were fasted overnight, and tissues were collected at sacrifice the following morning. BM was recorded before animals were decapitated and trunk blood was collected.

[2] = test system: Otsuka Long-Evans Tokushima Fatty (OLETF) rat; experiment: End of study fasting blood/plasma measurements (glucose, hormones, lipids, RAAS peptides); design: Plasma AngII higher than OLETF control / Plasma Ang 1-7 higher than OLETF control / Plasma aldosterone higher than OLETF control / Reduction of fasting insulin to glucagon ratio compared to OLETF / Reduction of circulating adiponectin compared to OLETF / Reduction of leptin compared to OLETF: concentration or dose not given beside the values
Excerpt: as §2
Statistics—All values are represented as mean #standard error mean (SEM) unless otherwise indicated. Means were compared by one-way ANOVA followed by Tukey's honest significant difference or unpaired, one-tailed t-test to assess significant differences among groups. Means and regressions were considered significant at p<0.05. Outliers were detected by ROUT (Q=1.0%) and removed; however, it should be noted that this was necessary for only 12 occurrences. All statistical procedures, including Pearson r correlations, were performed using GraphPad Prism 9.3.1 (GraphPad Software, Inc., San Diego, CA, USA).
as §4
Plasma Analysis—Plasma concentrations of adiponectin (Millipore Sigma; EZRADP-62K), aldosterone (R&D Systems; KGE016), angiotensin 1-7 (Phoenix Pharmaceuticals; EKE-002-01), angiotensin II (Phoenix Pharmaceuticals; EK-002-12CE), corticosterone (R&D Systems; KGE009), ghrelin (Sigma Aldrich; RAB0207), glucagon (Crystal Chemicals; 81519), leptin (Millipore Sigma; EZRL-83K), non-esterified fatty acid (NEFA) (Wako Chemicals) and triglycerides (Cayman Chemical; 10010303) were measured in fasted, end of study plasma samples. All samples were analyzed in duplicate and run in a single assay with intra-assay and percent CV of <10% for all assays.

[3] = test system: Otsuka Long-Evans Tokushima Fatty (OLETF) rat; experiment: Systolic blood pressure by DSI radiotelemetry; settings: for Average increase of systolic blood pressure versus non-treated OLETF: after the 7th day of the dose regimen
Procedure: as §3

[4] = test system: Otsuka Long-Evans Tokushima Fatty (OLETF) rat; experiment: Liver triglyceride content; settings: p<0.05
[5] = OLETF rats, 200 mg/kg oral, 4 weeks, p<0.05
[6] = average between day 10 and day 30
[7] = by day 13 through the end of the study
[8] = H4CBD-treated OLETF rats, end of study fasting, mean ± SEM
[9] = H4CBD-treated OLETF rats, end of study, mean ± SEM

CCCCCc1cc(O)c(C2CC(C)CCC2C(C)C)c(O)c1 (stereo not shown) [H4CBD, 2-(2-isopropyl-5-methylcyclohexyl)-5-pentylbenzene-1,3-diol]
Activity score relative to OLETF control ([1]; DSI HD-S10 telemeter, H4CBD n=3, OLETF n=2, p=0.0985, not significant): nearly doubled
Body mass (g) ([1]; H4CBD-treated OLETF rats, 200 mg/kg oral gavage, 4 weeks, mean ± SEM, n = 8): 516 ± 21^^# g
Final, absolute food intake ([1]; H4CBD-treated OLETF rats, 200 mg/kg oral, 4 weeks, average of 3 days, mean ± SEM): 36 ± 2 g
Relative total fat (g/100 g BM) ([1]; H4CBD-treated OLETF rats, 200 mg/kg oral, 4 weeks, epi.+retro., mean ± SEM): 7.8 ± 1.1 g/100 g BM
Relative epi. fat (g/100 g BM) ([1]; H4CBD-treated OLETF rats, 200 mg/kg oral, 4 weeks, epidydimal, mean ± SEM): 1.2 ± 0.1^^# g/100 g BM
Relative final food intake (g/100 g BM) ([1]; H4CBD-treated OLETF rats, 200 mg/kg oral, 4 weeks, mean ± SEM): 6.7 ± 0.4 g/100 g BM
Relative retro. fat (g/100 g BM) ([1]; H4CBD-treated OLETF rats, 200 mg/kg oral, 4 weeks, retroperitoneal, mean ± SEM): 6.6 ± 0.9 g/100 g BM
Initial, absolute food inake ([1]; H4CBD-treated OLETF rats, average of 3 days, mean ± SEM): 34 ± 2 g
Reduction of relative combined (total) adipose compared to OLETF ([1]; OLETF rats, 200 mg/kg oral, 4 weeks): 25%
Change in food consumption compared to OLETF ([1]; OLETF rats, 200 mg/kg oral, 4 weeks (Table 1)): not associated with a change in food consumption
Effect on body mass (BM) ([1]; OLETF rats, 200 mg/kg oral, 4 weeks, compared with vehicle LETO, 200 mg/kg): reduced BM in OLETF to LETO levels within the first week; also recorded: reduced BM to vehicle-treated LETO levels
Reduction of relative epidydimal fat compared to OLETF control [1, 5]: 35%
Reduction of relative retroperitoneal fat compared to OLETF control [1, 5]: 24%
BM of vehicle-treated OLETF higher than H4CBD-treated OLETF ([1]; OLETF rats, 200 mg/kg oral, after first week (day 10-30), p<0.05): 15%
Increased relative food consumption compared to OLETF control [1, 6]: 24%
Increased relative food intake consumption compared to LETO [1, 6]: 74%
Water intake higher than LETO [1, 7]: > 600%
Water intake higher than OLETF control [1, 7]: 90%
Fasting blood glucose higher than LETO ([2]; 45 weeks of age, p<0.0001): 2.2 fold
Fasting blood glucose higher than OLETF ([2]; 45 weeks of age, p<0.01): 56%
Glucose:Insulin (mmol/μIU × 10^4) [2, 8]: 10.9 ± 1.1^ mmol/μIU × 10^4
Insulin:Glucagon (μIU/pg) [2, 8]: 0.6 ± 0.0^ μIU/pg
Fasting glucagon [2, 9]: 19.4 ± 9.4 pg/mL
Fasting insulin (μIU/mL) [2, 9]: 13.9 ± 0.4^# μIU/mL
Fasting blood glucose (mmol/L) ([2]; H4CBD-treated OLETF rats, end of study, mean ± SEM, n = 8): 15.8 ± 1.9^†£ mmol/L
Fasted plasma NEFA ([2]; LETO, OLETF, H4CBD): not different among groups
Increase of fasting plasma insulin over OLETF ([2]; end of study): 10%
Plasma glucagon, OLETF versus H4CBD ([2]; end of study fasting): not different
Plasma Ang 1-7 higher than OLETF control ([2]; end of study plasma): 26%
Plasma AngII higher than OLETF control ([2]; end of study plasma): 24%
Plasma aldosterone higher than OLETF control ([2]; end of study plasma, p=0.052): 150%
Plasma corticosterone ([2]; fasting plasma, LETO, OLETF, H4CBD): comparable amongst the groups
Plasma ghrelin greater than the other groups ([2]; fasting plasma, p<0.01 vs OLETF, p<0.05 vs LETO): 75%
Reduction of circulating adiponectin compared to OLETF ([2]; fasting plasma, p<0.05): 40%
Reduction of leptin compared to OLETF ([2]; fasting plasma, p<0.05): 47%
Leptin:adiponectin ratio ([2]; fasting plasma, ratio 30% lower in OLETF than LETO): did not modulate the ratio further
Fasted plasma TG ([2]; p<0.0001 OLETF vs. H4CBD, TG 147% higher in OLETF than LETO): reduced fasted plasma TG to LETO control levels
Increase of fasting glucose to insulin ratio compared to OLETF ([2]; p<0.05): 47%
Reduction of fasting insulin to glucagon ratio compared to OLETF ([2]; p<0.05): 64%
Systolic blood pressure, treated vs non-treated OLETF ([3]; 4 weeks telemetry): No significant difference; also recorded: did not reduce SBP
Average increase of systolic blood pressure versus non-treated OLETF [3]: 4%
Average increase of systolic blood pressure versus non-treated OLETF ([3]; H4CBD n=3, OLETF n=2): 6.5 mmHg
Reduction of liver triglyceride content [4]: 28%
